Results on 28 compounds are retold here after patent publication US11702404B2, “GLP-1R modulating compounds” (priority 2019, dated 2023).

Where two headings read alike, the source gives them in different places. Where only a bound is given, the exact number is not on record here.

Data set [1] is described as follows: Microsomal stability, human liver microsomes (predicted hepatic clearance). The settings on record: predicted from in vitro microsomal stability data.
The target in data set [2] is GLP-1R (Homo sapiens, UniProt P43220). As to the kind of experiment: GLP-1R activation: cAMP increase in CHO cells stably expressing GLP-1R. It is filed as cell-based.
Where [3] appears, read: cAMP increase, CHO cells stably expressing GLP-1R, 10 point dose response, 30 minutes incubation, read-out: EC50.

Sequence of GLP-1R (P43220 24-463): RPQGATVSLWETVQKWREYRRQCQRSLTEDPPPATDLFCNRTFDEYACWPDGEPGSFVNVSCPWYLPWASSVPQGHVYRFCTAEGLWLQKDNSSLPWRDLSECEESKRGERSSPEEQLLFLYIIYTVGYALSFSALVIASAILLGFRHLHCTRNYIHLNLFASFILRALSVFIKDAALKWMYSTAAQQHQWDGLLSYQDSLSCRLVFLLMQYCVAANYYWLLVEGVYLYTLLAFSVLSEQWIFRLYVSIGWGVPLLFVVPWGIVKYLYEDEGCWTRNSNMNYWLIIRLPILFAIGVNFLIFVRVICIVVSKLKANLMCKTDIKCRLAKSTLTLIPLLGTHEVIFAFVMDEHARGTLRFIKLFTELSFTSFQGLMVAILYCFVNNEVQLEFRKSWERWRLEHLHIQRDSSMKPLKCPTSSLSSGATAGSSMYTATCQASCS

`N#Cc1ccc(COc2cccc(-c3cc(F)c(Cc4nc5ccc(C(=O)O)cc5n4[C@H]4CCNC4=O)cc3F)n2)c(F)c1` [Example 630]: in data set [1], the “Predicted Hepatic Clearance (Pred. Cl.)” value is 2.67 mL/min/kg. Moreover, the EC50 in data set [2] (setting [3]) came out at 39.4 nM.

As for `N#CCC1(Cn2c(Cc3cc(F)c(-c4cccc(OCc5ccc(Cl)cc5F)n4)cc3F)nc3ccc(C(=O)O)cc32)CC1` [Example 416, 2-(4-(6-((4-chloro-2-fluorobenzyl)oxy)pyridin-2-yl)-2,5-difluorobenzyl)-1-((1-(cyanomethyl)cyclopropyl)methyl)-1H-benzo[d]imidazole-6-carboxylic acid], the “Predicted Hepatic Clearance (Pred. Cl.)” value in data set [1] was 4.17 mL/min/kg. Moreover, in data set [2] (setting [3]), the concentration giving a half-maximal response (EC50) was 0.09 nM.

As for `COCCn1c(C2OCCc3cc(-c4cccc(OCc5ccc(C#N)cc5F)n4)ccc32)nc2ccc(C(=O)O)cc21` (single isomer, unassigned) [Example 48, 2-(6-(6-((4-cyano-2-fluorobenzyl)oxy)pyridin-2-yl)isochroman-1-yl)-1-(2-methoxyethyl)-1H-benzo[d]imidazole-6-carboxylic acid], in data set [1], the “Predicted Hepatic Clearance (Pred. Cl.)” value was 3.67 mL/min/kg. For the same compound, the EC50 in data set [2] (setting [3]) amounted to 575 nM.

Consider `Cc1conc1Cn1c(Cc2ccc(-c3cccc(OCc4ccc(C#N)cc4F)n3)cc2F)nc2ccc(C(=O)O)cc21` [Example 490, 2-(4-(6-((4-cyano-2-fluorobenzyl)oxy)pyridin-2-yl)-2-fluorobenzyl)-1-((4-methylisoxazol-3-yl)methyl)-1H-benzo[d]imidazole-6-carboxylic acid], for which the “Predicted Hepatic Clearance (Pred. Cl.)” value in data set [1] is 3.67 mL/min/kg. For the same compound, the EC50 in data set [2] (setting [3]) turned out to be 5.53 nM.

Turning to `CC(=O)N1C[C@H](F)C[C@@H]1Cn1c(Cc2cc(F)c(-c3cccc(OCc4ccc(C#N)cc4F)n3)cc2F)nc2ccc(C(=O)O)cc21` [Example 691], the “Predicted Hepatic Clearance (Pred. Cl.)” value in data set [1] was 4.17 mL/min/kg. In addition, the EC50 in data set [2] (read-out: EC50) is 0.06 nM.

`COCCn1c(Cc2ccc(-c3cccc(OCc4ccc(C#N)cc4F)n3)cc2C#CC2(C)COC2)nc2ccc(C(=O)O)cc21` [Example 232, 2-(4-(6-((4-cyano-2-fluorobenzyl)oxy)pyridin-2-yl)-2-((3-methyloxetan-3-yl)ethynyl)benzyl)-1-(2-methoxyethyl)-1H-benzo[d]imidazole-6-carboxylic acid]: the “Predicted Hepatic Clearance (Pred. Cl.)” value in data set [1] was 18.7 mL/min/kg. The EC50 in data set [2] (setting [3]) amounted to 17.8 nM.

As for `N#Cc1ccc(COc2cccc(-c3cc(F)c(Cc4nc5ccc(C(=O)O)nc5n4CCOC(F)F)cc3F)n2)c(F)c1` [Example 583, 2-(4-(6-((4-cyano-2-fluorobenzyl)oxy)pyridin-2-yl)-2,5-difluorobenzyl)-3-(2-(difluoromethoxy)ethyl)-3H-imidazo[4,5-b]pyridine-5-carboxylic acid], the “Predicted Hepatic Clearance (Pred. Cl.)” value in data set [1] is 10.3 mL/min/kg. Also, the concentration giving a half-maximal response (EC50) in data set [2] (setting [3]) stood at 2.39 nM.

Turning to `CCn1cncc1Cn1c(Cc2ccc(-c3cccc(OCc4ccc(C#N)cc4F)c3)cc2F)nc2ccc(C(=O)O)cc21` [Example 527, 2-((3′-((4-cyano-2-fluorobenzyl)oxy)-3-fluoro-[1,1′-biphenyl]-4-yl)methyl)-1-((1-ethyl-1H-imidazol-5-yl)methyl)-1H-benzo[d]imidazole-6-carboxylic acid], the “Predicted Hepatic Clearance (Pred. Cl.)” value in data set [1] is 3.67 mL/min/kg. The EC50 in data set [2] (setting [3]) came to 1.84 nM.

Regarding `O=C(O)c1ccc2nc(Cc3c(F)cc(-c4cccc(OCc5ccc(C(F)F)cc5F)n4)c(F)c3F)n(C[C@@H]3CCO3)c2c1` [Example 758], in data set [1], the “Predicted Hepatic Clearance (Pred. Cl.)” value was 4.5 mL/min/kg. Further, the EC50 in data set [2] (setting [3]) is 0.03 nM.

Turning to `N#Cc1ccc(COc2nccc(-c3ccc(Cc4nc5ccc(C(=O)O)nc5n4CC4(CF)CC4)c(F)c3)n2)c(F)c1` [Example 359, 2-(4-(2-((4-cyano-2-fluorobenzyl)oxy)pyrimidin-4-yl)-2-fluorobenzyl)-3-((1-(fluoromethyl)cyclopropyl)methyl)-3H-imidazo[4,5-b]pyridine-5-carboxylic acid], the “Predicted Hepatic Clearance (Pred. Cl.)” value in data set [1] was under 1.83 mL/min/kg. In data set [2] (setting [3]), the EC50 turned out to be 3.09 nM.

`COCCn1c(Cc2cc(F)c(-c3ccc(F)c(OCc4ccc(C(F)F)cc4F)n3)cc2F)nc2c(F)cc(C(=O)O)cc21` [Example 762]: in data set [1], the “Predicted Hepatic Clearance (Pred. Cl.)” value was 1.83 mL/min/kg. Moreover, the EC50 in data set [2] (setting [3]) is 0.9 nM.

In the case of `COCCn1c(Cc2cc(F)c(-c3cccc(OCc4ccc(C#N)cc4COC)n3)cc2F)nc2ccc(C(=O)O)cc21` [Example 844, 2-(4-(6-((4-cyano-2-(methoxymethyl)benzyl)oxy)pyridin-2-yl)-2,5-difluorobenzyl)-1-(2-methoxyethyl)-1H-benzo[d]imidazole-6-carboxylic acid], in data set [1], the “Predicted Hepatic Clearance (Pred. Cl.)” value is 2.5 mL/min/kg. The EC50 in data set [2] (setting [3]) worked out at 13 nM.

In the case of `N#Cc1ccc(COc2cccc(-c3ccc(Cc4nc5ccc(C(=O)O)cc5n4C[C@@H]4CCN4C4COC4)c(F)c3)n2)c(F)c1` [Example 395, (S)-2-(4-(6-((4-cyano-2-fluorobenzyl)oxy)pyridin-2-yl)-2-fluorobenzyl)-1-((1-(oxetan-3-yl)azetidin-2-yl)methyl)-1H-benzo[d]imidazole-6-carboxylic acid], in data set [1], the “Predicted Hepatic Clearance (Pred. Cl.)” value was under 1.83 mL/min/kg. The EC50 in data set [2] (read-out: EC50) came out at 42.3 nM.

In the case of `COCCn1c(Cc2cc(F)c(-c3cccc(OCc4ccc(C#N)cc4OC)n3)cc2F)nc2ccc(C(=O)O)cc21` [Example 436, 2-(4-(6-((4-cyano-2-methoxybenzyl)oxy)pyridin-2-yl)-2,5-difluorobenzyl)-1-(2-methoxyethyl)-1H-benzo[d]imidazole-6-carboxylic acid], in data set [1], the “Predicted Hepatic Clearance (Pred. Cl.)” value was under 1.83 mL/min/kg. Further, the EC50 in data set [2] (setting [3]) is 0.44 nM.

Turning to `N#Cc1ccc(COc2cccc(-c3cc(F)c(Cc4nc5ccc(C(=O)O)cc5n4CCOC4CC4)cc3F)n2)c(F)c1` [Example 629], the “Predicted Hepatic Clearance (Pred. Cl.)” value in data set [1] is 1.83 mL/min/kg. Besides, the EC50 in data set [2] (setting [3]) stood at 1.26 nM.

For `COCCn1c(Cc2ccc(-c3cccc(OCc4ccc(C#N)cc4F)n3)cc2F)nc2ccc(C(=O)O)nc21` [Example 200, 2-(4-(6-((4-cyano-2-fluorobenzyl)oxy)pyridin-2-yl)-2-fluorobenzyl)-3-(2-methoxyethyl)-3H-imidazo[4,5-b]pyridine-5-carboxylic acid], in data set [1], the “Predicted Hepatic Clearance (Pred. Cl.)” value was 2.83 mL/min/kg. The concentration for a half-maximal effect (EC50) in data set [2] (setting [3]) stood at 18 nM.

Turning to `COCCn1c(Cc2cc(F)c(-c3cccc(OCc4cc(F)c(C#N)cc4F)n3)cc2F)nc2ccc(C(=O)O)cc21` [Example 565, 2-(4-(6-((4-cyano-2,5-difluorobenzyl)oxy)pyridin-2-yl)-2,5-difluorobenzyl)-1-(2-methoxyethyl)-1H-benzo[d]imidazole-6-carboxylic acid], in data set [1], the “Predicted Hepatic Clearance (Pred. Cl.)” value is 6 mL/min/kg. Also, the EC50 in data set [2] (setting [3]) was found to be 4.91 nM.

On to `COCCn1c(Cc2c(F)cc(-c3cccc(OCc4ccc(C#N)cc4F)n3)cc2F)nc2ccc(C(=O)O)cc21` [Example 39, 2-(4-(6-((4-cyano-2-fluorobenzyl)oxy)pyridin-2-yl)-2,6-difluorobenzyl)-1-(2-methoxyethyl)-1H-benzo[d]imidazole-carboxylic acid], for which the “Predicted Hepatic Clearance (Pred. Cl.)” value in data set [1] is under 1.83 mL/min/kg. Moreover, in data set [2] (setting [3]), the EC50 is 8.79 nM.

Take `COCCn1c(Cc2cc(F)c(-c3cccc(OCc4ccc(C(F)(F)F)nc4)n3)cc2F)nc2ccc(C(=O)O)cc21` [Example 861]: the “Predicted Hepatic Clearance (Pred. Cl.)” value in data set [1] is 1.83 mL/min/kg. Also, the EC50 in data set [2] (setting [3]) came out at 16.5 nM.

With `N#Cc1cc(F)c(COc2nccc(-c3ccc(Cc4nc5ccc(C(=O)O)cc5n4C[C@@H]4CCO4)cc3F)n2)cc1F` [Example 789], the “Predicted Hepatic Clearance (Pred. Cl.)” value in data set [1] was 5.67 mL/min/kg. Also, in data set [2] (setting [3]), the EC50 was determined as 1.18 nM.

Turning to `COCCn1c(Cc2cc(F)c(-c3cccc(OCc4ccc(C)cc4F)n3)cc2F)nc2ccc(C(=O)O)cc21` [Example 810], in data set [1], the “Predicted Hepatic Clearance (Pred. Cl.)” value was 6.83 mL/min/kg. Moreover, the EC50 in data set [2] (setting [3]) came to 0.33 nM.

As for `CN1CCO[C@H](Cn2c(Cc3cc(F)c(-c4cccc(OCc5ccc(C#N)cc5F)n4)cc3F)nc3ccc(C(=O)O)cc32)C1` [Example 639], the “Predicted Hepatic Clearance (Pred. Cl.)” value in data set [1] was 5 mL/min/kg. For the same compound, the EC50 in data set [2] (setting [3]) turned out to be 78.2 nM.

Consider `N#Cc1ccc(COc2ncc(F)c(-c3cc(F)c(Cc4nc5ccc(C(=O)O)cc5n4C[C@@H]4CCO4)cc3F)n2)c(F)c1` [Example 879, 2-[[4-[2-[(4-cyano-2-fluoro-phenyl)methoxy]-5-fluoro-pyrimidin-4-yl]-2,5-difluoro-phenyl]methyl]-3-[[(2S)-oxetan-2-yl]methyl]benzimidazole-5-carboxylic acid], for which the “Predicted Hepatic Clearance (Pred. Cl.)” value in data set [1] was 6 mL/min/kg. The EC50 in data set [2] (setting [3]) was determined as 0.51 nM.

Turning to `N#Cc1ccc(COc2ccc(F)c(-c3cc(F)c(Cc4nc5ccc(C(=O)O)cc5n4C[C@@H]4CCO4)cc3F)n2)c(F)c1` [Example 793], in data set [1], the “Predicted Hepatic Clearance (Pred. Cl.)” value was 5.67 mL/min/kg. Also, the EC50 in data set [2] (setting [3]) was 0.17 nM.

With `COCCn1c(Cc2cc(F)c(-c3ccc(F)c(OCc4ccc(C(F)F)cc4F)n3)cc2F)nc2ccc(C(=O)O)cc21` [Example 752], in data set [1], the “Predicted Hepatic Clearance (Pred. Cl.)” value was 1.83 mL/min/kg. Also, the concentration for a half-maximal effect (EC50) in data set [2] (setting [3]) turned out to be 0.51 nM.

For `COCCn1c(Cc2c(F)cc(-c3cccc(OCc4ccc(C#N)cc4F)n3)c(F)c2F)nc2ccc(C(=O)O)cc21` [Example 401, 2-(4-(6-((4-cyano-2-fluorobenzyl)oxy)pyridin-2-yl)-2,3,6-trifluorobenzyl)-1-(2-methoxyethyl)-1H-benzo[d]imidazole-6-carboxylic acid], in data set [1], the “Predicted Hepatic Clearance (Pred. Cl.)” value is 6.92 mL/min/kg. For the same compound, a half-maximal effect in data set [2] (EC50 (nM)) (EC50) was put at 1.34 nM.

Take `CO[C@@H](CO)Cn1c(Cc2cc(F)c(-c3cccc(OCc4ccc(C#N)cc4F)n3)cc2F)nc2ccc(C(=O)O)cc21` [Example 619]: the “Predicted Hepatic Clearance (Pred. Cl.)” value in data set [1] was 6.67 mL/min/kg. Further, in data set [2] (setting [3]), the EC50 worked out at 3.1 nM.

In the case of `COCCn1c(Cc2ccc(-c3cccc(OCc4cccc(C(C)C)c4OC)n3)cc2F)nc2ccc(C(=O)O)cc21` [Example 157, 2-(2-fluoro-4-(6-((3-isopropyl-2-methoxybenzyl)oxy)pyridin-2-yl)benzyl)-1-(2-methoxyethyl)-1H-benzo[d]imidazole-6-carboxylic acid], in data set [1], the “Predicted Hepatic Clearance (Pred. Cl.)” value is 7.67 mL/min/kg. Further, the EC50 in data set [2] (setting [3]) was found to be 534 nM.
